Laboratory results reported in patent publication US4200755A, “2-Hydro xy-5-[1-hydroxy-2-[4-(2-oxo-1-benzimidazolinyl)piperidino]ethyl]benzoic acid derivatives” (Richardson-Merrell Inc., priority 1979, dated 1980).
Counter-ions that a name gives are not always drawn.

Assays:
β-adrenergic receptor = molecular target: T1, β-adrenergic receptor (Cavia porcellus, UniProt H0W3H1); assay: β-Adrenergic receptor blocking activity in vitro, isolated guinea pig atria preparation, isoproterenol as agonist; assay type: cell-based; conditions: isolated guinea pig atria (increase in rate), read-out: pA2 β (converted)
T1 construct: isolated guinea pig atria preparation; from tissue; host or cells: guinea pig atria
T1 sequence (H0W3H1 1-470): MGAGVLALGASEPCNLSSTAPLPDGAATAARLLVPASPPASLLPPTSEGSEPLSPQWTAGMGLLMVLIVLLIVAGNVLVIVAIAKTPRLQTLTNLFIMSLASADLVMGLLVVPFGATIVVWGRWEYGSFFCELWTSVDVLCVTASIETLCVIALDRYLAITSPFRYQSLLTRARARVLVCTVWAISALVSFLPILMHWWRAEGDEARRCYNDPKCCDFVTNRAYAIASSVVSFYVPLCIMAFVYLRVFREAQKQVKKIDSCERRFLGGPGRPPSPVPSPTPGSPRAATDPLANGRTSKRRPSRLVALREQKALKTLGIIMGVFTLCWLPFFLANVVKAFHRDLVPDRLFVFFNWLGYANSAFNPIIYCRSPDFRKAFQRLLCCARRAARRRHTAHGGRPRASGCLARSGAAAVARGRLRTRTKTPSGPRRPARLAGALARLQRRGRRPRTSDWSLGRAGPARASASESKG
Method: (§1) The following Example is illustrative of the α and β-adrenergic blocking activity and the direct spasmolytic activity for the compounds of this invention.
(§2) β-Adrenergic receptor blocking activity is determined in vitro by performing cumulative dose-response experiments in the isolated guinea pig atria preparation using isoproterenol as the agonist. The response (increase in rate) of the guinea pig atria preparation in the presence of logarithmically increasing concentrations of the compounds being tested are expressed as percent of the maximal attainable response. Relative antagonistic potency is expressed as a pA2 value, as defined above.

α-adrenergic receptor = assay: α-Adrenergic receptor blocking activity in vitro, isolated rabbit aortic strip preparation, norepinephrine as agonist; assay type: cell-based
Method: as §1
α-Adrenergic receptor blocking activity is determined in vitro by performing cumulative dose-response experiments in the isolated rabbit aortic strip preparation using norepinephrine as the agonist. The contractile response of the rabbit strip preparation in the presence of logarithmically increasing concentrations of the compounds being tested are expressed as percent of the maximal attainable response. Relative antagonistic potency is expressed as a pA2 value.

[1] = test system: isolated guinea pig ileum preparation; assay: Direct spasmolytic activity in vitro, isolated guinea pig ileum preparation, barium chloride as agonist; assay type: cell-based
Method: as §1
as §2, with “Direct spasmolytic” for “β-Adrenergic receptor blocking”, “dose response” for “dose-response”, “ileum” for “atria”, “barium chloride” for “isoproterenol”, “The contractile” for “The”, “response” for “response (increase in rate)”

[2] = test system: spontaneously hypertensive rats (SHR); assay: Antihypertensive activity in spontaneously hypertensive rats (SHR), systolic blood pressure; assay type: in vivo, rat (SHR, Okomoto-Aoki strain); conditions: oral 50 mg/kg
Method: The following Example illustrates the antihypertensive activity for the compounds of this invention. Antihypertensive activity is determined in spontaneously hypertensive rats (SHR) of the Okomoto-Aoki strain. Systolic blood pressure of the SHR is measured from the caudal artery by means of an indirect method utilizing a photocell transducer/tail cuff occluder system. Time response relationships are determined for each compound following an oral dose of 50 mg/kg. Data are expressed as mm of Hg decrease from control values. Statistical significance is determined using a 2 tailed "t" test comparing drug treatment response values to those obtained from concurrent vehicle treated animals.

For `Cc1ccc(N(CC2=NCCN2)c2cccc(O)c2)cc1` [phentolamine, reference compound], the Kb (β-adrenergic receptor) was over 10 µM.
For `COC(=O)c1cc(C(O)CN2CCC(n3c(=O)[nH]c4ccccc43)CC2)ccc1O` (stereo not drawn) [Compound 1, methyl 2-hydroxy-5-[1-hydroxy-2-[4-(2-oxo-1-benzimidazolinyl)piperidino]ethyl]benzoate hydrochloride], the “pA2 α” value (α-adrenergic receptor) was 6.94, the Kb (β-adrenergic receptor) was 1.95 µM and the “pA2 BaCl2 (Direct Spasmolytic Activity)” value [1] was 5.90.
`NC(=O)c1cc(C(O)CN2CCC(n3c(=O)[nH]c4ccccc43)CC2)ccc1O` (stereo not drawn) [Compound 2, 2-hydroxy-5-[1-hydroxy-2-[4-(2-oxo-1-benzimidazolinyl)piperidino]ethyl]benzamide hydrochloride monohydrate] was tested, and the “pA2 α” value (α-adrenergic receptor) was 6.70, the Kb (β-adrenergic receptor) was 3.55 µM and the “pA2 BaCl2 (Direct Spasmolytic Activity)” value [1] was under 4.20.
`CCNC(=O)c1cc(C(O)CN2CCC(n3c(=O)[nH]c4ccccc43)CC2)ccc1O` (stereo not drawn) [Compound 3, 2-hydroxy-5-[1-hydroxy-2-[4-(2-oxo-1-benzimidazolinyl)piperidino]ethyl]-N-ethylbenzamide hydrochloride] was tested, and the “pA2 α” value (α-adrenergic receptor) was 6.63, the Kb (β-adrenergic receptor) was over 4.17 µM and the “pA2 BaCl2 (Direct Spasmolytic Activity)” value [1] was 5.16. For the same molecule, the “lowers blood pressure (decrease from control values)” value ([2]; after 1 hour) was 22 mm Hg and the “lowers blood pressure (decrease from control values)” value ([2]; after 4 hours) was 51 mm Hg.
